≈ marks a conversion by molar mass, not a printed value. Each block holds one compound with its values, some of them ahead of it.
Columns and labels:
[1] = molecular target: T1, human ecto-5′-NT (Homo sapiens, UniProt P21589); test: Enzyme inhibition assay (without Triton X-100), malachite green method; type: biochemical; settings: human ecto-5′-NT 3.6 nM; for IC50: AMP 500 µM, without Triton X-100, HEPES pH 7.4; for Hill slope: concentration-inhibition curve, without Triton X-100
T1 construct: purchased OriGene Technologies, Inc (Rockville, MD, USA)
T1 sequence (P21589 27-574): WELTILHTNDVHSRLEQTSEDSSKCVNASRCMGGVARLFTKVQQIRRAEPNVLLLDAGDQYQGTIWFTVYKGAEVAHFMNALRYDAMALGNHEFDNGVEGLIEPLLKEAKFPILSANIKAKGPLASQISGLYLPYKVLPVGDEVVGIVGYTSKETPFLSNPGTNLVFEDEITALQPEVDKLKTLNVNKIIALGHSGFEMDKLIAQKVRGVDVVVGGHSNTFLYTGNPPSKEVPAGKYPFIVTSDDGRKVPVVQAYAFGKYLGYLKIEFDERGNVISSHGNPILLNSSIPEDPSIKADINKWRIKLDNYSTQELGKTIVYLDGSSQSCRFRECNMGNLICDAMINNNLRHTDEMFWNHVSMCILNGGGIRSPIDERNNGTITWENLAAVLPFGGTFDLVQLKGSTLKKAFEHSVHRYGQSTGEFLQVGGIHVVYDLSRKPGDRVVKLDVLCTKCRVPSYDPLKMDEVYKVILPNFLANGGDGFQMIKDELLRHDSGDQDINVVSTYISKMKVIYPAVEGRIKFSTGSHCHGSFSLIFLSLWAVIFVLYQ
Experimental: (§1) Enzyme inhibition assays (without Triton X-100). Following procedures described in the literature, with some modifications, all assays were carried out in a reaction mixture containing HEPES buffer (10 mM; pH = 7.4), MgCl2 (2 mM), CaCl2 (1 mM), human ecto-5′-NT (3.6 nM), AMP (500 µM) as substrate and variable concentration of each tested compound (from 0 to 500 µM for A and from 0 to 100 µM for B, C and D). Stock solutions of each compound were prepared in DMSO. The final concentration of DMSO in all samples/assays/experiments was 1.0% (v/v). Results were controlled for the effect of DMSO on enzymatic activity. After incubation for 10 min at 37.0 ± 0.2 °C, the reactions were stopped by heating the system for 5 min at 99.0 ± 0.2 °C. Inorganic phosphate concentrations were quantified spectrophotometrically (at λ = 630 nm), using the malachite green method, as described in the literature. Each experiment was done in triplicate. A four-parameter logistic non-linear regression model was used to fit the experimental data, using GraphPad Prism 7.0 (GraphPad, San Diego, CA, USA). From the corresponding fitted curves, we obtained the IC50 values, except when the minimum plateau value from the dose-response curve was far from zero. For such curves, IC50 ranges were estimated based on the inhibition (%) achieved at the maximum tested concentration.

[2] = molecular target: T1, human ecto-5′-NT; test: Non-ionic detergent-sensitivity evaluation: enzyme inhibition assay with 0.01% (v/v) Triton X-100; type: biochemical; settings: human ecto-5′-NT 3.6 nM, AMP 500 µM, read-out: IC50 in the presence of 0.01% (v/v) Triton X-100
Experimental: as §1
(i) Non-ionic detergent-sensitivity evaluation: For each compound (A, B, C and D), enzyme inhibition assays were done, similarly as described above, using however Triton X-100 (a non-ionic detergent) at a final concentration of 0.01% (v/v) in the reaction mixture.

[3] = molecular target: T1, human ecto-5′-NT; test: Enzyme concentration sensitivity evaluation: enzyme inhibition assay at 36 nM enzyme; type: biochemical; settings: human ecto-5′-NT 36 nM (10-fold increase), AMP 500 µM
Experimental: as §1
(ii) Enzyme concentration sensitivity evaluation: For each compound (A, B, C and D), enzyme inhibition assays were done, similarly as described above, but using human ecto-5′-NT at 36 nM (increased by 10-fold).

[4] = Turbidimetric solubility assay; type: physicochemical; settings: HEPES buffer with MgCl2 and CaCl2, aqueous buffer, kinetic from dmso stock; HEPES buffer 10 mM pH 7.4, MgCl2 2 mM, CaCl2 1 mM, 1.0% (v/v) DMSO; turbidity at 400 nm; read-out: Estimated Solubility
Experimental: The final DMSO concentration in each sample was 1.0% (v/v). Increased turbidity (light scattering) was measured at 400 nm, since all compounds have absorbance peaks below this wavelength. Each sample was prepared and measured in triplicate. All measurements were done using a Hitachi U-2010 spectrophotometer.

[5] = Turbidity at 400 nm as a function of time; type: physicochemical; settings: A 500 µM, B 100 µM, D 250 µM; HEPES buffer pH 7.4, 1.0% (v/v) DMSO; precipitates seen after 60 min
Experimental: Additionally, turbidity at 400 nm as a function of time was followed for compounds A–D (Figure 6a). The concentration of each compound in these assays was near to the maximum that could be obtained, so that DMSO concentration was kept at 1.0% (v/v) in the assay buffer. […] In fact, after 60 min, precipitates at the bottom of the cuvettes were clearly observed by visual inspection (data not shown).
Figure 6 (a) Turbidity at 400 nm as a function of time measured for compounds A, B, C and D (at 500 µM, 100 µM, 80 µM and 250 µM, respectively). Each solution was prepared in HEPES buffer (10 mM), containing MgCl2 (2 mM) and CaCl2 (1 mM), pH = 7.4. Final concentration of DMSO in each sample was 1.0% (v/v); (b) Mean diameter (D) values as a function of time for compound C (80 µM) as determined by DLS. A solution of C was prepared in HEPES buffer (10 mM), containing MgCl2 (2 mM) and CaCl2 (1 mM), pH = 7.4. Final concentration of DMSO in each sample was 1.0% (v/v).
Turbidimetric assays were done using a Hitachi U-2010 spectrophotometer (Hitachi, Chiyoda, Tokyo, Japan). DLS analysis was done using a Zeta Plus Zeta-Potential Analyzer (Brookshaven Instruments Corporation, Hotsville, NY, USA) equipped with a 570 nm laser for dynamic light scattering at 90°. For enzymatic assays, absorbance measurements were done using a FlexStation 3 Multi-Mode Microplate Reader (Molecular Devices, LLC, San Jose, CA, USA).

[6] = Dynamic light scattering (DLS), aggregation kinetics; type: physicochemical; settings: 80 µM, HEPES buffer pH 7.4, 1.0% (v/v) DMSO
Experimental: (iv) Dynamic light scattering (DLS): Particle size (mean zeta-average diameter D) for compound C was determined using a Zeta Plus Zeta-Potential Analyzer (Brookshaven Instruments Corporation, Hotsville, NY, USA) equipped with a 570 nm laser for dynamic light scattering at 90° [63]. Solutions of Compound C (80 µM) were prepared in HEPES buffer (10 mM), pH = 7.4. The final concentration of DMSO in each sample was 1.0% (v/v).

SMILES: Nc1ncnc2c1ncn2[C@@H]1O[C@H](COP(=O)(O)OP(=O)(O)O)[C@@H](O)[C@H]1O [ADP, adenosine diphosphate, reference compound]
IC50 [1]: 29.7 ± 1.2 µM | IC50 [2]: 31.7 ± 1.2 µM | IC50 [3]: 27.2 ± 1.1 µM

SMILES: O=C(Nc1nc2ccc(F)cc2s1)c1cc(-c2ccccc2O)n[nH]1 [B, N-(6-fluoro-1,3-benzothiazol-2-yl)-3-(2-hydroxyphenyl)-1H-pyrazole-5-carboxamide]
solubility [4]: 8.8 µM (≈ 3.12 µg/mL) | Hill slope [1]: −2.90 | IC50 [1]: 1.9 ± 1 µM | IC50 [2]: 2.3 ± 1.2 µM | IC50 [3]: > 36 µM | Turbidity at 400 nm as a function of time [5]: a decrease in turbidity is observed as a function of time

SMILES: O=C(COC(=O)c1n[nH]c2ccccc12)Nc1c(F)cccc1F [Compound A, [(2,6-difluorophenyl)carbamoyl]methyl 1H-indazole-3-carboxylate]
solubility [4]: 79.1 µM (≈ 26.2 µg/mL) | Hill slope [1]: −2.75 | IC50 [1]: 82.9 ± 1.1 µM | IC50 [2]: > 500 µM | Turbidity at 400 nm as a function of time [5]: a decrease in turbidity is observed as a function of time

Continued, in another order:

solubility [4]: < 0.5 µM | IC50 [1]: 2.2 ± 1.2 µM | IC50 [2]: > 36 µM | IC50 [3]: > 36 µM
SMILES: CS(=O)(=O)c1ccc2nc(NC(=O)c3cc(-c4ccccc4O)[nH]n3)sc2c1 [Compound D, 5-(2-hydroxyphenyl)-N-(6-methanesulfonyl-1,3-benzothiazol-2-yl)-1H-pyrazole-3-carboxamide]
Turbidity at 400 nm as a function of time [5]: a decrease in turbidity is observed as a function of time

solubility [4]: 11.7 µM (≈ 4.23 µg/mL) | Hill slope [1]: −3.19 | IC50 [1]: 16.3 ± 1.1 µM | IC50 [2]: > 100 µM
SMILES: CSc1nnc(NC(=O)c2cc(-c3cc(C)cc(C)c3O)n[nH]2)s1 [Compound C, 3-(2-hydroxy-3,5-dimethylphenyl)-N-[5-(methylsulfanyl)-1,3,4-thiadiazol-2-yl]-1H-pyrazole-5-carboxamide]
Aggregate particle size (mean diameter) as a function of time by DLS [6]: aggregate particle size slowly increased with time

— PMC6222861, “Be Aware of Aggregators in the Search for Potential Human ecto-5′-Nucleotidase Inhibitors” (Molecules : A Journal of Synthetic Chemistry and Natural …, 2018)
